Test [1] deals with primary IPF fibroblasts. The test can be described thus: Combination of nintedanib and MPS peptide, cell viability by MTT, Chou and Talalay CI. The test is classed as cell-based, human. The following applies: nintedanib 62.5-2000 nM and/or MPS 6.25-200 μM, 72 hours. How it is done:
FIGS. 12A-12E: (FIGS. 12A-12B) Combinatorial effect of MPS peptide with nintedanib on fibroblasts isolated from two IPF patients. Cells were treated with various closes of nintedanib (62.5-2000 nM) and/or MPS peptide (6.25-200 μM) for 72 hours, respectively. After single ([…]) or combined ([…]) treatment, cell viability was determined by MTT assays. (FIG. 12C) The Chou and Talalay CI (combination index) method was utilized to evaluate the therapeutic interactions between nintedanib and MPS peptide using the Calcusyn software. Gray line, additive effect of the combination of MPS peptide and the drug is represented at CI=1. (FIG. 12D) Cells were individually treated with 1 μM nintedanib, 100 μM MPS peptide or combinations of 1 μM nintedanib and 100 μM MPS peptide. After 48 hours, cell viability was determined by the trypan blue exclusion assay (n+3; *, p<0.05). […] Molecular basis of MPS peptide and its potential for increasing nintedanib efficacy. […] A kinetic assay confirmed that this peptide binds PIP2 with a dissociation constant of 17.64 nM (FIG. 10B). As expected, a decrease of PIP3 pools in whole cell lysates of MPS-treated IPF fibroblasts was observed (FIG. 10C), supporting the notion that MPS peptide is able to inhibit AKT activation through trapping PIP2. […]

Test [2] deals with phospho-MARCKS, phospho-AKT and α-SMA. The test can be described thus: Western blot in lung fibroblast cells isolated from bleomycin-treated mice. The test is classed as cell-based. The following applies: 100 μM, 48 hours, fibroblasts from bleomycin-treated mice. The procedure:
FIGS. 7A-7B: (FIG. 7A) Western blots analysis of phospho-MARCKS, phospho-AKT and α-SMA expression in lung fibroblast cells isolated from saline- or bleomycin-treated mice after 48 hours of treatment with control or MPS peptides (100 μM). (FIG. 7B) Effect of MPS peptide on cell viability of lung fibroblasts isolated from saline- (mFb-Saline) or bleomycin-treated (mFb-Bleomycin) mice (n=4; *, p<0.05).
MPS peptide potentially serves as an antifibrotic agent in bleomycin-induced pulmonary fibrosis. Bleomycin remains the standard agent for induction of experimental pulmonary fibrosis in animals^23. Thus, 8-week-old female C57BL/6J mice received saline or bleomycin intratracheally (33 μg in […] of saline) as previously described^23. Lung specimens from bleomycin- or saline-treated mice were collected and subjected to immunofluorescence staining. […] Next, lung fibroblast cells isolated from saline- or bleomycin-treated mice (two mice fibroblast cell lines were gifts from Dr. Sem H. Phan, University of Michigan School of Medicine, MI) were incubated with either 100 μM control or MPS peptide for 48 hours. […] The feasibility of the MPS peptide as an antifibrotic agent in a bleomycin-induced pulmonary fibrosis was tested. […] Saline- and bleomycin-exposed mice then were treated with either PBS or MPS peptide (28 mg/kg) intraperitoneally every other day. To ascertain the therapeutic effect of MPS peptide on pulmonary fibrosis, MPS was administered intraperitoneally during the “fibrotic” phase of the model. […]
Western blot analyses and the preparations of whole-cell lysates have been previously described^14, 16, 27 For whole cell lysates, cells were lysed in a lysis buffer (50 mM Tris-HCl (pH 7.4), 1% Triton X-100, 10% glycerol, 150 mM NaCl, 1 mM EDTA, 20 μg/ml leupeptin, 1 mM PMSF and 20 μg/ml aprotinin) and separated by SDS-PAGE. […] The cells were mounted onto slides and visualized using fluorescence microscopy (model Axiovert 100; Carl Zeiss, Oberkochen, Germany) or a Zeiss LSM510 laser-scanning confocal microscope image system.
(In general: In western blotting, separated proteins are transferred to a membrane and probed.)

Where no end group is shown, it is not given here.

KKKKKRFSFKKSFKLSGFSFKKNKK [MPS peptide]: the Cell viability result in test [1] is recorded as “decreased”. In addition, in test [2], the phospho-AKT expression result is reported as “decrease”, the phospho-MARCKS expression entry is given as “decrease” and the α-SMA expression entry is given as “decrease”.

The values are drawn from US20220267390A1, “MPS MODIFIED PEPTIDES AND USE THEREOF” (The Regents of the University of California, priority 2019, published 2022).
